Results from US8889699B2, “5-fluorouracil derivative” (Delta-Fly Pharma, Inc., priority 2009, dated 2014).
Read-outs that look alike come from different tables or passages of the source.

Target: T1, DPD (Rattus norvegicus, UniProt O89000)
T1 construct: the obtained supernatant was used as a DPD enzyme solution or an OPRT enzyme solution; from tissue; host or cells: liver of 8-week old SD rat; 105,000 g supernatant of homogenate
T1 sequence (O89000 1-1025): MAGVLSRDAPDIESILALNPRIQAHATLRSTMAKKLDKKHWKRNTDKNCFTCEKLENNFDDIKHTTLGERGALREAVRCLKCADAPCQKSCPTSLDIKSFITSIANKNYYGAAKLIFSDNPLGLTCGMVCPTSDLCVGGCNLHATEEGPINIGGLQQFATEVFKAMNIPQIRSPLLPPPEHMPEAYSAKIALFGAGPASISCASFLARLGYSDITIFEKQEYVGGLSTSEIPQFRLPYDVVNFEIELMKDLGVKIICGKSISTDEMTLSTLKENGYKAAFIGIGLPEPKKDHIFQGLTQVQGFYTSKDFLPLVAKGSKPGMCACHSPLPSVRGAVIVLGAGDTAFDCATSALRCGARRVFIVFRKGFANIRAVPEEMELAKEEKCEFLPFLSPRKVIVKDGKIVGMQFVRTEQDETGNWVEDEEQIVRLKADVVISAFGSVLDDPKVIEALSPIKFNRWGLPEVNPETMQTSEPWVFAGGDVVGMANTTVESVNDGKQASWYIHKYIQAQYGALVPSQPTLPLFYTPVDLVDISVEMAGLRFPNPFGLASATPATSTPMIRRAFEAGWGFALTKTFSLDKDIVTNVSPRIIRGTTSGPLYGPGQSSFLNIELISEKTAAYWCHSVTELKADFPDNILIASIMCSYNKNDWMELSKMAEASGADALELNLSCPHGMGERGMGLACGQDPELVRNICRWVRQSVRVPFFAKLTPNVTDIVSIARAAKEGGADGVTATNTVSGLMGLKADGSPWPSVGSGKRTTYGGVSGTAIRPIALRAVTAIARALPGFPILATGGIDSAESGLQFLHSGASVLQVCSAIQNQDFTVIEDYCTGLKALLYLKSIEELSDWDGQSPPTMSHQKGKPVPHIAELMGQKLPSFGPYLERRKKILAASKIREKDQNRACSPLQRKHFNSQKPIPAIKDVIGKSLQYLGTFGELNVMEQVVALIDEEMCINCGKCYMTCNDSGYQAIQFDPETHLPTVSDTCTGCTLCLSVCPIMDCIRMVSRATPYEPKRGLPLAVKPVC
Assay: DPD inhibitory action in vitro (enzyme reaction, tritium-labeled 5-FU as substrate)
Format: biochemical
Method: The resulting product was diluted to concentrations of 1 mM, 100 μM, 10 μM, and 1 μM with a 10 mM potassium phosphate buffer solution (pH 6.0), thereby obtaining Test Liquids 1. The obtained Test Liquids 1 were separately added to the enzyme reaction solution described below to give final concentrations of 200 μM, 20 μM, 2 μM, and 0.2 μM. • (b) Test liquid preparation (2): As a DPD inhibitor, 5-chloro-2,4-dihydroxypyridine (CDHP; gimeracil) was dissolved to a concentration of 10 mM in a 10 mM potassium phosphate buffer solution (pH 6.0). The resulting product was diluted to concentrations of 1 mM, 100 μM, 10 μM, and 1 μM, thereby obtaining Test Liquids 2. The obtained Test Liquids 2 were separately added to the enzyme reaction solution to give final concentrations of 200 μM, 20 μM, 2 μM, and 0.2 μM. • (c) Test liquid preparation (3): As an OPRT inhibitor, citrazinic acid (Citra. A.) was dissolved to a concentration of 10 mM in 20 mM trishydroxyaminomethane-hydrochloric buffer solution (pH 8.0). Thereafter, the resulting product was diluted to concentrations of 1 mM, 100 μM, and 10 μM with a 10 mM potassium phosphate buffer solution, thereby obtaining Test Liquids (3). The obtained Test Liquids 3 were separately added to the enzyme reaction solution to give final concentrations of 200 μM, 20 μM, and 2 μM. • (d) Preparation of enzyme solution: The liver of an 8-week old SD rat was used as a DPD enzyme source, while human tumor cells that had been transplanted into a nude mouse and proliferated therein were used as an OPRT enzyme source. Specifically, immediately after a rat liver or successively-transplanted human tumor cells were extracted, a 50-mM tris-hydrochloric acid buffer solution (pH 8.0) containing 0.25 M saccharose, 5 mM magnesium chloride, and 1 mM dithreitol was added thereto to a concentration of 25% (w/v) and homogenized. Thereafter, ultracentrifugation was performed at 105,000 g for 60 minutes, and the obtained supernatant was used as a DPD enzyme solution or an OPRT enzyme solution. • (e) Enzyme reaction: A DPD enzyme reaction was carried out in accordance with the method of Tatsumi et al. (Gann, 78: 748-755 (1987)) using 5-FU labeled with tritium as a substrate. An OPRT enzyme reaction was carried out in accordance with the method of Shirasaka et al. (Cancer Res., 53: 4004-4009 (1993)) using 5-FU labeled with tritium as a substrate. Then, the activity of a control group (with no test compound) and test compound groups was measured. The percent inhibition of the test compound relative to DPD or OPRT was calculated using the following formula: [1-(the enzyme activity with the test compound/the enzyme activity of the control group)]×100(%).
The resulting product was diluted to concentrations of 1 mM, 100 μM, 10 μM, and 1 μM with a 10 mM potassium phosphate buffer solution (pH 6.0), thereby obtaining Test Liquids 1. The obtained Test Liquids 1 were separately added to the enzyme reaction solution described below to give final concentrations of 200 μM, 20 μM, 2 μM, and 0.2 μM. • (b) Preparation of enzyme solution: The liver of an 8-week old SD rat was used as a DPD enzyme source, while human tumor cells that had been transplanted into a nude mouse and proliferated therein were used as an OPRT enzyme source. Specifically, immediately after a rat liver or successively-transplanted human tumor cells were extracted, a 50-mM tris-hydrochloric acid buffer solution (pH 8.0) containing 0.25 M saccharose, 5 mM magnesium chloride, and 1 mM dithreitol was added thereto to a concentration of 25% (w/v) and homogenized. Thereafter, ultracentrifugation was performed at 105,000 g for 60 minutes, and the obtained supernatant was used as a DPD enzyme solution or an OPRT enzyme solution. • (c) Enzyme reaction: A DPD enzyme reaction was carried out in accordance with the method of Tatsumi et al. (Gann, 78: 748-755 (1987)) using 5-FU labeled with tritium as a substrate. […]

inhibition at 0.2 µM (0.2 μM, Table 2, read-out: DPD Inhibition (%)): 44.8%
inhibition at 2 µM (2 μM, Table 2, read-out: DPD Inhibition (%)): 85.1%
DPD Inhibitory Activity: Activity (Conc. 0.2 μM, Table 1): 0.597 nmol/mL/min
inhibition at 0.2 µM (Conc. 0.2 μM, Table 1, read-out: DPD Inhibitory Activity: Inhibition): 40.8%
DPD Inhibitory Activity: Activity (Conc. 2 μM, Table 1): 0.195 nmol/mL/min
inhibition at 2 µM (Conc. 2 μM, Table 1, read-out: DPD Inhibitory Activity: Inhibition): 80.7%
DPD Inhibitory Activity: Activity (Conc. 20 μM, Table 1): 0.074 nmol/mL/min
inhibition at 20 µM (Conc. 20 μM, Table 1): 92.7%
DPD Inhibitory Activity: Activity (Conc. 200 μM, Table 1): 0.106 nmol/mL/min
inhibition at 200 µM (Conc. 200 μM, Table 1): 89.5%
SMILES: Oc1cc(O)c(Cl)cn1 [CDHP, 5-chloro-2,4-dihydroxypyridine, reference compound]
